“Also recorded” adds a separate entry of the source.

Experimental findings from patent US11400107B2, “Cancer treatments” (NuCana plc, priority 2016, dated 2022) are described below.

Experiment [1] relates to Lin^−/CD34^+/CD38^−/CD123^+ cancer stem cells in KG1a cells. As to the kind of experiment: Immunophenotypic quantification of the leukaemic stem cell compartment in KG1a cells. It counts as cell-based, human. The conditions noted are these: for low concentration at which the selective reduction of cancer stem cells was still observed / proportion of cancer stem cells as compared to non-stem cancer cells after treatment / selectivity against cancer stem cells compared to the parent compound: KG1a cells; for proportion of cancer stem cells as compared to non-stem cancer cells after treatment: 72 h; for selectivity for cancer stem cells as opposed to non-stem cancer cells (summary): summary statement of the description. The procedure: The respective abilities of NUC-1031 and gemcitabine to target CSCs were investigated in the AML cell line KG1a.
KG1a cells were cultured for 72 hours in the presence of a wide range of concentrations of each nucleoside analogue and their respective ProTides. Cells were then harvested and labelled with a cocktail of anti-lineage antibodies (PE-cy7), anti-CD34 (FITC), anti-CD38 (PE) and anti-CD123 (PERCP cy5). The sub-population expressing a leukaemic stem cell (LSC) phenotype were subsequently identified and were expressed as a percentage of all viable cells left in the culture. The percentages of stem cells remaining were then plotted on a dose-response graph and the proportion of cancer stem cells was compared across the various concentrations of ProTides and their respective parent compounds, in order to determine if they preferentially target cancer stem cells.
The data obtained in these experiments were evaluated using one way ANOVA. All data was confirmed as Gaussian or a Gaussian approximation using the omnibus K2 test. LD50 values were calculated from the non-linear regression and line of best-fit analysis of the sigmoidal dose-response curves. All statistical analyses were performed using Graphpad Prism 6.0 software (Graphpad Software Inc., San Diego, Calif.).

For experiment [2], the system named is primary acute myeloid leukaemia (AML) blasts. As to the kind of experiment: In vitro cytotoxicity assay (LD50) in primary acute myeloid leukaemia cells. It counts as cell-based, human. The conditions noted are these: for LD50: primary AML blasts, 48 h, concentration required to kill 50% of the tumour cells in culture; for potency as compared to the respective parent compound (summary): summary statement of the description. Here is the method: ProTide compounds, as defined herein, and the comparator ProTide compound NUC-1031 were assayed for their cytotoxic effects on primary cultures of acute myeloid leukaemia (AML) blasts. LD50 values (the concentration required to kill 50% of the tumour cells in culture) were calculated in respect of the ProTide compounds of the invention, and the parent compounds from which they are derived. […] The LD50 values of the ProTide compounds as defined herein (and their parent compounds) were compared with the comparator ProTide NUC-1031 and its parent compound gemcitabine.
Bone marrow samples were collected in ethylenediaminetetraacetic acid (EDTA) from newly diagnosed, previously untreated, acute myeloid leukaemia (AML) patients. AML blasts were enriched by density gradient centrifugation using Histopaque (Sigma, Poole, UK) and were subsequently maintained in Roswell Park Memorial Institute medium (RPMI) supplemented with 10% foetal bovine serum (FBS). Cells were treated with ProTide compounds (either as encompassed by the present invention, or the comparator ProTide NUC-1031) or with the ProTides' parent compounds at a range of experimental concentrations, and incubated for 48 h. All cultures were maintained at 37° C. in a 5% CO2 humidified atmosphere.
Cells were harvested and labelled with CD34-fluorescein isothiocyanate (FITC) (BD Biosciences, Buckingham, UK) and then resuspended in 200 μl of binding buffer containing 4 μl of annexin V labelled with allophycocyanin (APC) (eBioscience Ltd, Hatfield, UK). Apoptosis was quantified in the CD34^+ AML cells using an Accuri C6 flow cytometer (Becton Dickinson, CA, USA). At least 10,000 events were acquired and data were subsequently analysed using FlowJo software (Tree Star Inc., Ashland, Oreg., USA). All LD50 values (concentration of drug required to kill 50% of cells) were derived from the dose-response curves.

Consider `CCCCCOC(=O)[C@@H](C)NP(=O)(OC[C@H]1O[C@@H](n2cnc3c(N)nc(Cl)nc32)[C@H](F)C1O)Oc1cccc2ccccc12` (some centres unmarked) [CPF-727], for which, in experiment [1], the “low concentration at which the selective reduction of cancer stem cells was still observed” value was “approximately 6×10^−8 M”, the “proportion of cancer stem cells as compared to non-stem cancer cells after treatment” value was “reduction in the proportion of cancer stem cells” and the “selectivity for cancer stem cells as opposed to non-stem cancer cells (summary)” value (“selectivity … to non-stem cancer cells (summary)” below) is “selectively target for cancer stem cells”.
For `C[C@H](NP(=O)(OC[C@H]1O[C@@H](n2cnc3c(N)nc(Cl)nc32)[C@H](F)C1O)Oc1ccccc1)C(=O)OCc1ccccc1` (some centres unmarked) [CPF-448], in experiment [1], the “low concentration at which the selective reduction of cancer stem cells was still observed” value is “approximately 6×10^−8 M”, the “selectivity against cancer stem cells compared to the parent compound” value (from here on “selectivity against cancer stem cells”) was “greater selectivity”, the “proportion of cancer stem cells as compared to non-stem cancer cells after treatment” value is “reduction in the proportion of cancer stem cells” and the “selectivity … to non-stem cancer cells (summary)” value is on record as “selectively target for cancer stem cells; also recorded: high selectivity for cancer stem cells”.
Take `C[C@H](NP(=O)(OC[C@H]1O[C@@H](n2cnc3c(=S)[nH]cnc32)[C@@H](O)C1O)Oc1cccc2ccccc12)C(=O)OCC(C)(C)C` (some centres unmarked) [CPF-762]: in experiment [1], the “selectivity against cancer stem cells” value is reported as “greater selectivity”, the “proportion of cancer stem cells as compared to non-stem cancer cells after treatment” value is recorded as “reduction of the proportion of cancer stem cells” and the “selectivity … to non-stem cancer cells (summary)” value is on record as “selectively target for cancer stem cells”.
As for `C[C@H](NP(=O)(OC[C@H]1O[C@@H](n2cc(F)c(=O)[nH]c2=O)CC1O)Oc1cccc2ccccc12)C(=O)OCc1ccccc1` (single isomer, unassigned) [CPF-373 (Iso A)], in experiment [2], the LD50 result is recorded as “CPF 373 (Iso A) 0.052 μM” and the “potency as compared to the respective parent compound (summary)” value was “greater potency”. In addition, in experiment [1], the “low concentration at which the selective reduction of cancer stem cells was still observed” value is “approximately 8×10^−8 M”, the “proportion of cancer stem cells as compared to non-stem cancer cells after treatment” value is reported as “reduction in the proportion of cancer stem cells” and the “selectivity … to non-stem cancer cells (summary)” value is reported as “selectively target for cancer stem cells; also recorded: high selectivity for cancer stem cells”.
For `C[C@H](NP(=O)(OC[C@H]1O[C@@H](n2cnc3c(N)nc(F)nc32)[C@H](O)C1O)Oc1ccccc1)C(=O)OCc1ccccc1` (some centres unmarked) [CPF-682], in experiment [1], the “selectivity against cancer stem cells” value was “comparable”, the “proportion of cancer stem cells as compared to non-stem cancer cells after treatment” value is given as “significant decrease in the proportion of cancer stem cells” and the “selectivity … to non-stem cancer cells (summary)” value was “selectively target for cancer stem cells; also recorded: high selectivity for cancer stem cells”.
Turning to `C[C@H](NP(=O)(OC[C@H]1O[C@@H](n2cnc3c(N)nc(Cl)nc32)[C@H](F)C1O)Oc1cccc2ccccc12)C(=O)OCC(C)(C)C` (some centres unmarked) [CPF-720], in experiment [1], the “low concentration at which the selective reduction of cancer stem cells was still observed” value was “approximately 6×10^−8 M”, the “proportion of cancer stem cells as compared to non-stem cancer cells after treatment” value was “reduction in the proportion of cancer stem cells” and the “selectivity … to non-stem cancer cells (summary)” value is on record as “selectively target for cancer stem cells”.
`C[C@H](NP(=O)(OC[C@H]1O[C@@H](n2cc(F)c(=O)[nH]c2=O)CC1O)Oc1cccc2ccccc12)C(=O)OCc1ccccc1` (single isomer, unassigned) [CPF-373 (Iso B)]: in experiment [2], the LD50 result is “CPF 373 (Iso B) 0.055 μM” and the “potency as compared to the respective parent compound (summary)” value is given as “greater potency”. Moreover, in experiment [1], the “low concentration at which the selective reduction of cancer stem cells was still observed” value is given as “approximately 8×10^−8 M”, the “proportion of cancer stem cells as compared to non-stem cancer cells after treatment” value was “reduction in the proportion of cancer stem cells” and the “selectivity … to non-stem cancer cells (summary)” value is given as “selectively target for cancer stem cells; also recorded: high selectivity for cancer stem cells”.
As for `C[C@H](NP(=O)(OC[C@H]1O[C@@H](n2cc(F)c(=O)[nH]c2=O)CC1O)Oc1ccccc1)C(=O)OCc1ccccc1` (some centres unmarked) [CPF-381], in experiment [2], the LD50 entry is given as “CPF 381 0.039 μM” and the “potency as compared to the respective parent compound (summary)” value is “greater potency”. In addition, in experiment [1], the “low concentration at which the selective reduction of cancer stem cells was still observed” value is given as “approximately 8×10^−8 M”, the “proportion of cancer stem cells as compared to non-stem cancer cells after treatment” value was “reduction in the proportion of cancer stem cells” and the “selectivity … to non-stem cancer cells (summary)” value is “selectively target for cancer stem cells; also recorded: high selectivity for cancer stem cells”.
As for `Nc1nc(Cl)nc2c1ncn2[C@@H]1O[C@H](CO)[C@@H](O)[C@@H]1F` [Clofarabine], in experiment [1], the “low concentration at which the selective reduction of cancer stem cells was still observed” value is on record as “approximately 6×10^−8 M” and the “proportion of cancer stem cells as compared to non-stem cancer cells after treatment” value is given as “reduction in the proportion of cancer stem cells”.
Regarding `C[C@H](NP(=O)(Oc1ccccc1)OC1C[C@H](n2cnc3c(N)nc(Cl)nc32)O[C@@H]1CO)C(=O)OCc1ccccc1` (some centres unmarked) [CPF-793], in experiment [1], the “low concentration at which the selective reduction of cancer stem cells was still observed” value is “approximately 6×10^−8 M”, the “selectivity against cancer stem cells” value is reported as “greater selectivity; also recorded: statistically significant”, the “proportion of cancer stem cells as compared to non-stem cancer cells after treatment” value is “reduction in the proportion of cancer stem cells; also recorded: particularly striking” and the “selectivity … to non-stem cancer cells (summary)” value was “selectively target for cancer stem cells; also recorded: high selectivity for cancer stem cells”.
As to `CCOC(=O)[C@H](C)NP(=O)(OC[C@H]1O[C@@H](n2cnc3c(N)nc(F)nc32)[C@H](O)C1O)Oc1cccc2ccccc12` (some centres unmarked) [CPF-544], in experiment [1], the “selectivity against cancer stem cells” value is “comparable”, the “proportion of cancer stem cells as compared to non-stem cancer cells after treatment” value is “significant decrease in the proportion of cancer stem cells” and the “selectivity … to non-stem cancer cells (summary)” value is “selectively target for cancer stem cells; also recorded: high selectivity for cancer stem cells”.
Turning to `Nc1ccn([C@@H]2O[C@H](CO)[C@@H](O)C2(F)F)c(=O)n1` [Gemcitabine], the LD50 entry in experiment [2] is reported as “Gemcitabine 1.4 μM”.
In the case of `C[C@H](NP(=O)(OC[C@H]1O[C@@H](n2cc(F)c(=O)[nH]c2=O)CC1O)Oc1cccc2ccccc12)C(=O)OCc1ccccc1` (some centres unmarked) [CPF-373 (mix)], in experiment [2], the LD50 entry was “CPF 373 (mix) 0.053 μM”.
For `Nc1nc(Cl)nc2c1ncn2[C@H]1C[C@H](O)[C@@H](CO)O1` [Cladribine], the “proportion of cancer stem cells as compared to non-stem cancer cells after treatment” value in experiment [1] is listed as “reduction in the proportion of cancer stem cells”.
For `C[C@H](NP(=O)(OC[C@H]1O[C@@H](n2cnc3c(=S)[nH]c(N)nc32)[C@@H](O)C1O)Oc1cccc2ccccc12)C(=O)OCc1ccccc1` (some centres unmarked) [CPF-775], in experiment [1], the “selectivity against cancer stem cells” value is given as “statistically significant increases in selectivity at certain concentrations”, the “proportion of cancer stem cells as compared to non-stem cancer cells after treatment” value was “strong reduction in the proportion of cancer stem cells” and the “selectivity … to non-stem cancer cells (summary)” value is “selectively target for cancer stem cells; also recorded: high selectivity for cancer stem cells”.
As for `C[C@H](NP(=O)(Oc1cccc2ccccc12)OC1C[C@H](n2cnc3c(N)nc(Cl)nc32)O[C@@H]1CO)C(=O)OCc1ccccc1` (some centres unmarked) [CPF-791], in experiment [1], the “selectivity against cancer stem cells” value is given as “greater selectivity”, the “proportion of cancer stem cells as compared to non-stem cancer cells after treatment” value is “reduction in the proportion of cancer stem cells” and the “selectivity … to non-stem cancer cells (summary)” value was “selectively target for cancer stem cells”.
Consider `C[C@H](NP(=O)(OC[C@H]1O[C@@H](n2cnc3c(=S)[nH]cnc32)[C@@H](O)C1O)Oc1cccc2ccccc12)C(=O)OCc1ccccc1` (some centres unmarked) [CPF-761], for which, in experiment [1], the “selectivity against cancer stem cells” value was “greater selectivity; also recorded: most selective; also recorded: increase in selectivity was statistically significant”, the “proportion of cancer stem cells as compared to non-stem cancer cells after treatment” value is given as “reduction of the proportion of cancer stem cells” and the “selectivity … to non-stem cancer cells (summary)” value was “selectively target for cancer stem cells”.
Take `OC[C@H]1O[C@@H](n2cnc3c(S)ncnc32)[C@H](O)[C@@H]1O` [Thioinosine]: the “proportion of cancer stem cells as compared to non-stem cancer cells after treatment” value in experiment [1] was “reduction of the proportion of cancer stem cells”.
